Reference: ChEMBL document CHEMBL1201862, “PubChem BioAssay data set” (2004)
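Dose response: 5 concentrations. Exposure: 48 h. Format: 96-well plates. Endpoint: linear interpolation; highest concentration if not reached. The concentration for 50% growth inhibition is given as GI50.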 The source made the active and inactive calls. Rule as the data show it: active = GI50 up to about 1.1 µM and inactive = higher.

How the values were obtained:
Test in all cases: NCI anticancer screen, dose series, 48 h
SK-MEL-5 = system: SK-MEL-5
SNB-75 = system: SNB-75
SNB-78 = system: SNB-78
SF-268 = system: SF-268
NCI-H522 = system: NCI-H522
LXFL 529 = system: LXFL 529
DLD-1 = system: DLD-1
SNB-19 = system: SNB-19
HL-60 = system: HL-60
K562 = system: K562
HCC 2998 = system: HCC 2998
ACHN = system: ACHN
OVCAR-4 = system: OVCAR-4
RXF 393 = system: RXF 393
NCI-H460 = system: NCI-H460
COLO 205 = system: COLO 205
786-0 = system: 786-0
KM12 = system: KM12
HCT-15 = system: HCT-15
SF-295 = system: SF-295
A498 = system: A498
SK-MEL-2 = system: SK-MEL-2
DMS-273 = system: DMS-273
CAKI-1 = system: CAKI-1
NCI-H226 = system: NCI-H226
DU-145 = system: DU-145
SK-MEL-28 = system: SK-MEL-28
Malme-3M = system: Malme-3M
M19-MEL = system: M19-MEL
UACC-257 = system: UACC-257
OVCAR-8 = system: OVCAR-8
OVCAR-3 = system: OVCAR-3
LOX IMVI = system: LOX IMVI
KM-20L2 = system: KM-20L2
MOLT-4 = system: MOLT-4
SN12C = system: SN12C
M14 = system: M14
RPMI-8226 = system: RPMI-8226
IGROV-1 = system: IGROV-1
NCI-H23 = system: NCI-H23
SW-620 = system: SW-620
OVCAR-5 = system: OVCAR-5
HCT-116 = system: HCT-116
HOP-62 = system: HOP-62
EKVX = system: EKVX
CCRF-CEM = system: CCRF-CEM
TK-10 = system: TK-10
UO-31 = system: UO-31
SR = system: SR
SF-539 = system: SF-539
HOP-18 = system: HOP-18
HT-29 = system: HT-29
A549 = system: A549
U-251 = system: U-251
XF498 = system: XF498
HOP-92 = system: HOP-92
UACC-62 = system: UACC-62
SK-OV-3 = system: SK-OV-3
DMS-114 = system: DMS-114

SMILES: CC(=O)N/C=C/c1cc(O)ccc1O
- GI50 (SK-MEL-5): 36.5 µM (inactive)
- GI50 (SNB-75): 48.3 µM (inactive)
- GI50 (SNB-78): > 47.8 µM (inactive)
- GI50 (SF-268): 31.8 µM (inactive)
- GI50 (NCI-H522): 3.67 µM (inactive)
- GI50 (LXFL 529): 12.7 µM (inactive)
- GI50 (DLD-1): 27.2 µM (inactive)
- GI50 (SNB-19): > 52.7 µM (inactive)
- GI50 (HL-60): 10.1 µM (inactive)
- GI50 (K562): 35.9 µM (inactive)
- GI50 (HCC 2998): 50.8 µM (inactive)
- GI50 (ACHN): 18.9 µM (inactive)
- GI50 (OVCAR-4): 32.6 µM (inactive)
- GI50 (RXF 393): 31.7 µM (inactive)
- GI50 (NCI-H460): > 60.7 µM (inactive)
- GI50 (COLO 205): 29.1 µM (inactive)
- GI50 (786-0): 33.2 µM (inactive)
- GI50 (KM12): 37.7 µM (inactive)
- GI50 (HCT-15): 40.8 µM
- GI50 (SF-295): 32.3 µM (inactive)
- GI50 (A498): 51.3 µM (inactive)
- GI50 (SK-MEL-2): 34.9 µM (inactive)
- GI50 (DMS-273): > 67.5 µM (inactive)
- GI50 (CAKI-1): 16.6 µM (inactive)
- GI50 (NCI-H226): 46.3 µM (inactive)
- GI50 (DU-145): 41.3 µM (inactive)
- GI50 (SK-MEL-28): 32.8 µM (inactive)
- GI50 (Malme-3M): > 44.6 µM (inactive)
- GI50 (M19-MEL): 31.5 µM (inactive)
- GI50 (UACC-257): 31 µM (inactive)
- GI50 (OVCAR-8): 45.7 µM (inactive)
- GI50 (OVCAR-3): 16 µM (inactive)
- GI50 (LOX IMVI): 30.1 µM (inactive)
- GI50 (KM-20L2): 40.8 µM (inactive)
- GI50 (MOLT-4): 11.9 µM (inactive)
- GI50 (SN12C): 29.9 µM (inactive)
- GI50 (M14): 33.3 µM (inactive)
- GI50 (RPMI-8226): 40.3 µM (inactive)
- GI50 (IGROV-1): > 55.1 µM (inactive)
- GI50 (NCI-H23): 34.4 µM (inactive)
- GI50 (SW-620): 13.9 µM (inactive)
- GI50 (OVCAR-5): 29.4 µM (inactive)
- GI50 (HCT-116): 32.5 µM (inactive)
- GI50 (HOP-62): > 41 µM (inactive)
- GI50 (EKVX): 45.2 µM (inactive)
- GI50 (CCRF-CEM): 25.3 µM (inactive)
- GI50 (TK-10): 39.2 µM (inactive)
- GI50 (UO-31): 23.4 µM (inactive)
- GI50 (SR): 22 µM (inactive)
- GI50 (SF-539): 35.5 µM (inactive)
- GI50 (HOP-18): 16.4 µM (inactive)
- GI50 (HT-29): 32.1 µM (inactive)
- GI50 (A549): > 61.8 µM (inactive)
- GI50 (U-251): 37.2 µM (inactive)
- GI50 (XF498): 18.1 µM (inactive)
- GI50 (HOP-92): 18.7 µM (inactive)
- GI50 (UACC-62): 32.2 µM (inactive)
- GI50 (SK-OV-3): > 58.5 µM (inactive)

SMILES: O=C(CC(=O)c1ccccc1)c1ccccc1.O=C(CC(=O)c1ccccc1)c1ccccc1.O=C(CC(=O)c1ccccc1)c1ccccc1.[SiH4]
- GI50 (SK-MEL-5): 4.66 µM (inactive)
- GI50 (SNB-75): 10.4 µM (inactive)
- GI50 (SF-268): 3.37 µM (inactive)
- GI50 (NCI-H522): 2.26 µM (inactive)
- GI50 (LXFL 529): 3.39 µM (inactive)
- GI50 (DLD-1): 3.7 µM (inactive)
- GI50 (SNB-19): 4.74 µM (inactive)
- GI50 (HL-60): 1.92 µM (inactive)
- GI50 (K562): 3.88 µM (inactive)
- GI50 (HCC 2998): 3.6 µM (inactive)
- GI50 (ACHN): 3.63 µM (inactive)
- GI50 (OVCAR-4): 4.63 µM (inactive)
- GI50 (COLO 205): 2.21 µM (inactive)
- GI50 (786-0): 7.74 µM (inactive)
- GI50 (KM12): 3.48 µM (inactive)
- GI50 (SF-295): 4.65 µM (inactive)
- GI50 (A498): 10.6 µM (inactive)
- GI50 (CAKI-1): 4.92 µM (inactive)
- GI50 (NCI-H226): 8.87 µM (inactive)
- GI50 (SK-MEL-28): 7.76 µM (inactive)
- GI50 (Malme-3M): 11.8 µM (inactive)
- GI50 (M19-MEL): 3.31 µM (inactive)
- GI50 (UACC-257): 9.42 µM (inactive)
- GI50 (OVCAR-8): 3.47 µM (inactive)
- GI50 (OVCAR-3): 2.42 µM (inactive)
- GI50 (LOX IMVI): 3.1 µM (inactive)
- GI50 (KM-20L2): 4.18 µM (inactive)
- GI50 (DMS-114): 2.3 µM (inactive)
- GI50 (MOLT-4): 2.59 µM (inactive)
- GI50 (SN12C): 3.95 µM (inactive)
- GI50 (M14): 6.24 µM (inactive)
- GI50 (RPMI-8226): 4.03 µM (inactive)
- GI50 (IGROV-1): 5.4 µM (inactive)
- GI50 (NCI-H23): 3.15 µM (inactive)
- GI50 (SW-620): 4.15 µM (inactive)
- GI50 (OVCAR-5): 12.4 µM (inactive)
- GI50 (HCT-116): 5.02 µM (inactive)
- GI50 (HOP-62): 7.59 µM (inactive)
- GI50 (EKVX): 6.65 µM (inactive)
- GI50 (CCRF-CEM): 1.14 µM (inactive)
- GI50 (TK-10): 5.97 µM (inactive)
- GI50 (UO-31): 4.56 µM (inactive)
- GI50 (SR): 3.57 µM (inactive)
- GI50 (SF-539): 8.67 µM (inactive)
- GI50 (HOP-18): 6.71 µM (inactive)
- GI50 (HT-29): 4.41 µM (inactive)
- GI50 (A549): 3.01 µM (inactive)
- GI50 (U-251): 2.86 µM (inactive)
- GI50 (XF498): 3.87 µM (inactive)
- GI50 (HOP-92): 4.57 µM (inactive)
- GI50 (UACC-62): 3.89 µM (inactive)
- GI50 (SK-OV-3): 5.79 µM (inactive)

SMILES: Cc1ccc(S(=O)(=O)NCC2CCCCC2=O)cc1 (stereo not drawn)
- GI50 (SK-MEL-5): 82.4 µM (inactive)
- GI50 (SNB-75): 22.9 µM (inactive)
- GI50 (SNB-78): > 100 µM (inactive)
- GI50 (SF-268): 70 µM (inactive)
- GI50 (NCI-H522): 56.8 µM (inactive)
- GI50 (LXFL 529): > 100 µM (inactive)
- GI50 (SNB-19): > 100 µM (inactive)
- GI50 (HL-60): 45.3 µM (inactive)
- GI50 (K562): 66.1 µM (inactive)
- GI50 (OVCAR-4): 69.3 µM (inactive)
- GI50 (RXF 393): > 100 µM (inactive)
- GI50 (NCI-H460): > 100 µM (inactive)
- GI50 (COLO 205): > 100 µM (inactive)
- GI50 (786-0): > 100 µM (inactive)
- GI50 (KM12): > 100 µM (inactive)
- GI50 (HCT-15): > 100 µM
- GI50 (SF-295): > 100 µM (inactive)
- GI50 (A498): > 100 µM (inactive)
- GI50 (SK-MEL-2): > 100 µM (inactive)
- GI50 (DMS-273): > 100 µM (inactive)
- GI50 (CAKI-1): 15 µM (inactive)
- GI50 (NCI-H226): > 100 µM (inactive)
- GI50 (SK-MEL-28): > 100 µM (inactive)
- GI50 (Malme-3M): > 100 µM (inactive)
- GI50 (M19-MEL): > 100 µM (inactive)
- GI50 (UACC-257): 16.4 µM (inactive)
- GI50 (OVCAR-8): > 100 µM (inactive)
- GI50 (OVCAR-3): > 100 µM (inactive)
- GI50 (LOX IMVI): > 100 µM (inactive)
- GI50 (KM-20L2): > 100 µM (inactive)
- GI50 (DMS-114): 51.9 µM (inactive)
- GI50 (MOLT-4): 49.7 µM (inactive)
- GI50 (SN12C): > 100 µM (inactive)
- GI50 (M14): > 100 µM (inactive)
- GI50 (RPMI-8226): 40.8 µM (inactive)
- GI50 (IGROV-1): > 100 µM (inactive)
- GI50 (NCI-H23): > 100 µM (inactive)
- GI50 (SW-620): > 100 µM (inactive)
- GI50 (OVCAR-5): > 100 µM (inactive)
- GI50 (HCT-116): > 100 µM (inactive)
- GI50 (EKVX): > 100 µM (inactive)
- GI50 (CCRF-CEM): > 100 µM (inactive)
- GI50 (TK-10): > 100 µM (inactive)
- GI50 (UO-31): 57.3 µM (inactive)
- GI50 (SF-539): > 100 µM (inactive)
- GI50 (HOP-18): > 100 µM (inactive)
- GI50 (HT-29): 10.2 µM (inactive)
- GI50 (A549): > 100 µM (inactive)
- GI50 (U-251): > 100 µM (inactive)
- GI50 (XF498): > 100 µM (inactive)
- GI50 (HOP-92): 24.2 µM (inactive)
- GI50 (UACC-62): 66.5 µM (inactive)
- GI50 (SK-OV-3): > 100 µM (inactive)
